pIC50, pKi: −log10 of the molar value.
Key:
[1] = target: T1, Sigma non-opioid intracellular receptor 1 (Homo sapiens, UniProt Q99720); experiment: Inhibition of sigma 1 receptor (unknown origin)
[2] = target: T2, Sigma intracellular receptor 2 (Homo sapiens, UniProt Q5BJF2)
Description: Inhibition of sigma 2 receptor (unknown origin)

[3] = target: T3, Kappa-type opioid receptor (Homo sapiens, UniProt P41145); experiment: Displacement of [3H]-U69593 from KOR receptor (unknown origin) assessed as inhibition constant
Mu-type opioid receptor [4] = target: T4, Mu-type opioid receptor (Homo sapiens, UniProt P35372); experiment: Displacement of [3H]-Diprenorphine from MOR receptor (unknown origin) assessed as inhibition constant
T4 sequence (P35372 whole entry): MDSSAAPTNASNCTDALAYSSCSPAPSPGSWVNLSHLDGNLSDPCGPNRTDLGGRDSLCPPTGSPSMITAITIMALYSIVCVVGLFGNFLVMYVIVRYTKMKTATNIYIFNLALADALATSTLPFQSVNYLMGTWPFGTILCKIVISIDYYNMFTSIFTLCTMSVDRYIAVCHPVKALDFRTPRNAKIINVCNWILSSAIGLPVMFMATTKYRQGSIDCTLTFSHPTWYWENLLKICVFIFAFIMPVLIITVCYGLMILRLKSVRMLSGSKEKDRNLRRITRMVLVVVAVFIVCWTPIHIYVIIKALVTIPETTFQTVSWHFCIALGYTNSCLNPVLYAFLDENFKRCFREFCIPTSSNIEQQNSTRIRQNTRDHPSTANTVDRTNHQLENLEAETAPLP

[5] = target: T1, Sigma non-opioid intracellular receptor 1; experiment: Displacement of [3H]-(+)-pentazocine from sigma1 receptor (unknown origin) assessed as inhibition constant
[6] = target: Delta-type opioid receptor (Homo sapiens, UniProt P41143); experiment: Displacement of [3H]-Diprenorphine from DOR receptor (unknown origin) assessed as inhibition constant
Delta-type opioid receptor, sequence (P41143 whole entry): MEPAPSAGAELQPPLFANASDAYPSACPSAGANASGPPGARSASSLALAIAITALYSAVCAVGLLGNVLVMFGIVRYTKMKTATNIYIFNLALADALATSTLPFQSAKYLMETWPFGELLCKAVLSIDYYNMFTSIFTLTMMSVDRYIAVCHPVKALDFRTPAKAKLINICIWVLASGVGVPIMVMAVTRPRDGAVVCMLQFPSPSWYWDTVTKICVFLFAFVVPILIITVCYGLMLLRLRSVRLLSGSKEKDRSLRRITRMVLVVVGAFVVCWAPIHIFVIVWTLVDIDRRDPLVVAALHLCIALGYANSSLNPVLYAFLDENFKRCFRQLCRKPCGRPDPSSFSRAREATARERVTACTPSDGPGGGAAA

Mu-type opioid receptor [7] = target: T4, Mu-type opioid receptor; experiment: Displacement of [3H]-DAMGO from human MOR receptor assessed as inhibition constant by cheng-prusoff equation assay
[8] = target: Glutathione hydrolase 1 proenzyme (Homo sapiens, UniProt P19440); experiment: Inhibition of human GGT1
Glutathione hydrolase 1 proenzyme, sequence (P19440 1-380 limits assumed): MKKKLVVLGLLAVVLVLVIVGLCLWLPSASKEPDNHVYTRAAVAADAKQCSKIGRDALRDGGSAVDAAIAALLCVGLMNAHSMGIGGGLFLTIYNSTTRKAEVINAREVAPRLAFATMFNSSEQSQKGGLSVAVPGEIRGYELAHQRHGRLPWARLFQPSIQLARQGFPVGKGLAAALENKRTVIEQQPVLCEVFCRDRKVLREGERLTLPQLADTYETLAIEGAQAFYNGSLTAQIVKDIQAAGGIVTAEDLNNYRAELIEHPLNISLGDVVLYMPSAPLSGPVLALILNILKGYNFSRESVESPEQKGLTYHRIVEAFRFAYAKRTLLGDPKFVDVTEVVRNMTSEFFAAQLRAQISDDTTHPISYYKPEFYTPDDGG
Glutathione hydrolase 1 proenzyme, sequence (P19440 381-569 limits assumed): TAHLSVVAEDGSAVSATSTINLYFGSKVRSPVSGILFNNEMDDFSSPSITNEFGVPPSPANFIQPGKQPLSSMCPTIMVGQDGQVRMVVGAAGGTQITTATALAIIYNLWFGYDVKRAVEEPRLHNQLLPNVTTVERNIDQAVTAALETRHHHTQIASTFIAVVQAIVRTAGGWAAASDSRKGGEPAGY

[9] = Displacement of 3[H]BTX from rat cerebral cortex sodium channel assessed as inhibition constant; format: tissue-based
Mus musculus [10] = experiment: Anticonvulsant activity in mouse assessed as protection against maximal electroshock seizures […] by maximum electroshock seizure test; format: functional
[11] = target: T5, Sigma intracellular receptor 2 (Rattus norvegicus, UniProt Q5U3Y7); experiment: Displacement of [3H]DTG from sigma 2 receptor in rat liver membranes assessed as inhibition constant presence of haloperidol by scintillation counting analysis; format: cell membranes, Membrane
T5 sequence (Q5U3Y7 whole entry): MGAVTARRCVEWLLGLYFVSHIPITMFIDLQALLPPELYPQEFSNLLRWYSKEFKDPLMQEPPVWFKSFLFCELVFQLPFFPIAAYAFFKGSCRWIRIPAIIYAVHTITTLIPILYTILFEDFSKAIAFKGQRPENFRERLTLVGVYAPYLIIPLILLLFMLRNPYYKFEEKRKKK

[12] = target: T6, Sigma non-opioid intracellular receptor 1 (Cavia porcellus, UniProt Q60492); experiment: Displacement of [3H]-(+)-pentazocine from sigma1 receptor in guinea pig brain membrane assessed as inhibition constant measured for 150 mins in presence of haloperidol; format: cell membranes
T6 sequence (Q60492 whole entry): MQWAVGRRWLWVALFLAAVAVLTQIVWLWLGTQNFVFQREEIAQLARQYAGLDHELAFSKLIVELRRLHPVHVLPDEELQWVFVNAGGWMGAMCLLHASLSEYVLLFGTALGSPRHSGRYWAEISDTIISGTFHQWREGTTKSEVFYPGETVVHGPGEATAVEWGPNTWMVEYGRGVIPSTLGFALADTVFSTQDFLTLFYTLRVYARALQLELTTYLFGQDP

[13] = Ratio of Ki for displacement of [3H]DTG from sigma 2 receptor in rat liver membranes assessed as inhibition constant presence of haloperidol by scintillation counting analysis to Ki for displacement of [3H]-(+)-pentazocine from sigma 1 receptor in guinea pig brain membrane assessed as inhibition constant in presence of haloperidol; format: cell membranes
[14] = target: T6, Sigma non-opioid intracellular receptor 1; experiment: Displacement of [3H]-(+)-pentazocine from sigma1 receptor in guinea pig brain membrane assessed as inhibition constant measured for 150 mins; format: cell membranes
[15] = target: T2, Sigma intracellular receptor 2; experiment: Displacement of [3H]DTG from sigma 2 receptor (unknown origin) assessed as inhibition constant in presence of haloperidol measured for 120 mins by scintillation counting analysis
[16] = Ratio of Ki for displacement of [3H]DTG from sigma 2 receptor (unknown origin) assessed as inhibition constant in presence of haloperidol to Ki for displacement of [3H]-(+)-pentazocine from sigma1 receptor in guinea pig brain membrane assessed as inhibition constant; format: cell membranes
[17] = target: T1, Sigma non-opioid intracellular receptor 1; experiment: Agonist activity at sigma1 receptor (unknown origin); conditions: filed as agonist
Mu-type opioid receptor [18] = target: Mu-type opioid receptor (Rattus norvegicus, UniProt P33535); experiment: Displacement of [ 3H]-naloxone from rat brain membrane mu opioid receptor assessed as inhibition constant by radioligand binding assay; format: cell membranes
Mu-type opioid receptor (Rattus norvegicus, UniProt P33535), sequence (P33535 whole entry): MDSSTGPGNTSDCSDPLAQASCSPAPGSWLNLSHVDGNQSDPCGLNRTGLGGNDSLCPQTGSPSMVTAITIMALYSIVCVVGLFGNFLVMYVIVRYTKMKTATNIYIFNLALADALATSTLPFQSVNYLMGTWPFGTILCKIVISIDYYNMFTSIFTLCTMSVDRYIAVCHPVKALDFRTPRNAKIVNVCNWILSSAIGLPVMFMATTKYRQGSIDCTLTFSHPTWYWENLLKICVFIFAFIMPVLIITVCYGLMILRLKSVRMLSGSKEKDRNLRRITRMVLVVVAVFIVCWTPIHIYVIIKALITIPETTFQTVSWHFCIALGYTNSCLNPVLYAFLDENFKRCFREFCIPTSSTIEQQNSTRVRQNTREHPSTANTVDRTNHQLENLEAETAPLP

[19] = target: T2, Sigma intracellular receptor 2; experiment: Displacement of [3H]DTG from sigma 2 receptor (unknown origin) assessed as inhibition constant incubated for 120 mins in presence of (+)-SKF10047 by radioligand binding assay
[20] = target: T2, Sigma intracellular receptor 2; experiment: Displacement of [3H]DTG from sigma 2 receptor (unknown origin) assessed as inhibition constant
[21] = target: T6, Sigma non-opioid intracellular receptor 1; experiment: Displacement of [3H]-(+)-pentazocine from sigma1 receptor in guinea pig brain membrane assessed as inhibition constant measured after 120 mins by scintillation counting method; format: cell membranes
[22] = Ratio of Ki for displacement of [3H]DTG from sigma 2 receptor (unknown origin) to Ki for displacement of [3H]-(+)-pentazocine from sigma1 receptor in guinea pig brain membrane; format: cell membranes
[23] = Ratio of Ki for displacement of[3H]-DAMGO from human MOR receptor to Ki for displacement of [3H]-(+)-pentazocine from sigma1 receptor in guinea pig brain membrane; format: cell membranes
Mus musculus [24] = experiment: Anticonvulsant activity in mouse assessed as protection against maximal electroshock seizures at 5 mg/kg, sc by maximum electroshock seizure test; format: functional; conditions: read-out: ID50 (the source's name)
[25] = target: T6, Sigma non-opioid intracellular receptor 1; experiment: Displacement of [3H]-(+)-pentazocine from sigma1 receptor in guinea pig brain membrane assessed as inhibition constant; format: cell membranes
[26] = target: T5, Sigma intracellular receptor 2; experiment: Displacement of [3H]DTG from sigma 2 receptor in rat liver membranes assessed as inhibition constant presence of dextrallorphan; format: cell membranes, Membrane
[27] = target: T3, Kappa-type opioid receptor; experiment: Displacement of [3H]-diprenorphine from KOR receptor (unknown origin) assessed as inhibition constant in presence of D-Ala-N-MePhe-Gly-ol-enkephalin and D-Ala-DLeu-enkephalin
[28] = target: T2, Sigma intracellular receptor 2; experiment: Displacement of [3H]DTG from sigma 2 receptor (unknown origin) assessed as inhibition constant in presence of (+)-SKF10047 by radioligand binding assay

T3 sequence (P41145 whole entry): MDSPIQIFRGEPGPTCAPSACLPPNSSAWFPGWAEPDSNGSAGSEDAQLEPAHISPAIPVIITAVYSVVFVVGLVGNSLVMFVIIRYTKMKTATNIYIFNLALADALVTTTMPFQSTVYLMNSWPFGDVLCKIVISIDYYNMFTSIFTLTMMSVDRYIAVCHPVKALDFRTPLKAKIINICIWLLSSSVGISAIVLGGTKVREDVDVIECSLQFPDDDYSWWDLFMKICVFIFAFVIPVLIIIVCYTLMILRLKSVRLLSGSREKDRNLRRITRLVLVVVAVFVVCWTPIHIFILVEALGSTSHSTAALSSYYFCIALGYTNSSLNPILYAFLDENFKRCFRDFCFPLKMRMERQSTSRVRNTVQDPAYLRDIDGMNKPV
T1 sequence (Q99720 whole entry): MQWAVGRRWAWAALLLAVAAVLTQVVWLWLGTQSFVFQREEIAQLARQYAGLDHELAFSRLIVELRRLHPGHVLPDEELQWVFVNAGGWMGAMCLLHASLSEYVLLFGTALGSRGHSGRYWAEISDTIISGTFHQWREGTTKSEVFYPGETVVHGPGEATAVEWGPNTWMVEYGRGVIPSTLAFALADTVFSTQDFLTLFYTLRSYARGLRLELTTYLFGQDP
T2 sequence (Q5BJF2 whole entry): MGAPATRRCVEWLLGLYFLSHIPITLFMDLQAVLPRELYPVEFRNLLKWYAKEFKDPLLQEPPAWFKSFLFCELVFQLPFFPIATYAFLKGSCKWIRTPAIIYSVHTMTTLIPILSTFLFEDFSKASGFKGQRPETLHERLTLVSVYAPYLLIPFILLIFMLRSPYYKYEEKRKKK

C=CCCCCN1CC[C@]2(C)c3cc(O)ccc3C[C@@H]1[C@@H]2C
pKi [1]: 7.10

C/C=C/CN1CCN(c2ccc3c(c2)[C@H]2C[C@@H]3CCN2C(=O)OCc2ccccc2)CC1
pKi [2]: 7.80

COC(=O)[C@]1(c2ccc(Cl)cc2)C[C@@H]1CN1CC[C@]2(C)c3cc(O)ccc3C[C@@H]1[C@@H]2C
pKi [3]: 9.39
pKi (Mu-type opioid receptor [4]): < 4.60
pKi [5]: 5.98
pKi [6]: < 4.60

C=CCN1CC[C@@]2(C)c3cc(O)ccc3C[C@H]1[C@H]2C
pKi (Mu-type opioid receptor [7]): < 5.00
pKi [3]: < 6.00
pKi (Mu-type opioid receptor [4]): < 6.00
pKi [5]: 6.77
pKi [6]: < 6.00

CO[C@@H](C)CN1CC[C@@]2(C)c3cccc(O)c3C[C@@H]1C2(C)C
pIC50 [8]: 7.41
pKi [9]: 6.10
ED50 (Mus musculus [10]): 1 mg/kg

C[C@@H]1[C@@H]2CCN(Cc3ccccc3)[C@@H]1Cc1ccccc12
pKi [11]: 6.88
pKi [12]: 9.02
Ratio Ki [13]: 136

C[C@@H]1[C@@H]2Cc3ccc(N)cc3[C@]1(C)CCN2Cc1ccccc1
pKi [14]: 8.83
pKi [15]: 6.08
Ratio Ki [16]: 570

C[C@@H]1[C@@H]2Cc3ccc(O)cc3[C@]1(C)CCN2CCN1CCCCC1
ED50 [17]: 0.88 mg/kg
pKi (Mu-type opioid receptor [18]): 4.92
pKi [12]: 8.02
pKi [19]: 6.94

C[C@@H]1[C@@H]2Cc3ccc(O)cc3[C@]1(C)CCN2CCN(C)c1ccccc1
pKi (Mu-type opioid receptor [18]): 7.54
pKi [12]: 8.25
pKi [19]: 6.91

C[C@@H]1[C@@H]2Cc3ccc(O)cc3[C@]1(C)CCN2CCNc1ccccc1
pKi (Mu-type opioid receptor [18]): 7.10
pKi [12]: 8.23
pKi [19]: 6.95

COC(=O)[C@]1(c2ccccc2)C[C@@H]1CN1CC[C@]2(C)c3cc(O)ccc3C[C@@H]1[C@@H]2C
pKi [3]: 6.62
pKi (Mu-type opioid receptor [4]): < 4.60
pKi [6]: < 4.60

C[C@@H]1[C@@H]2Cc3ccc(O)cc3[C@]1(C)CCN2Cc1ccccc1
pKi [20]: 5.77
pKi (Mu-type opioid receptor [7]): 5.79
pKi [21]: 9.17
Ratio Ki [22]: 2600
Ratio Ki [23]: 2400

C[C@@H](CN1CC[C@@]2(C)c3cccc(O)c3C[C@@H]1C2(C)C)OCc1ccccc1 [CROBENETINE]
pIC50 [8]: 6.49
pKi [9]: 7.37
ED50 (Mus musculus [24]): 6.1 mg/kg

CC(C)=CCN1CC[C@@]2(C)c3c(ccc(O)c3Cl)C[C@H]1[C@H]2C
pKi [25]: 8.58
pKi [26]: 5.30

C[C@@H]1[C@@H]2Cc3ccccc3[C@]1(C)CCN2CCN(C)c1ccccc1
pKi [27]: < 5.00
pKi [28]: 6.80
pKi [5]: 7.04

C[C@@H]1[C@@H]2Cc3ccc(N(C)C)cc3[C@]1(C)CCN2Cc1ccccc1
pKi [14]: 8.76
pKi [15]: 6.59
Ratio Ki [16]: 150

C[C@@H]1[C@@H]2Cc3ccccc3[C@]1(C)CCN2CCN1CCCCC1
pKi [27]: < 5.00
pKi [28]: 6.89
pKi [5]: 7.70

C=CCCN1CC[C@]2(C)c3cc(O)ccc3C[C@@H]1[C@@H]2C
pKi [1]: 6.21

C[C@@H]1[C@@H]2Cc3ccc(O)cc3[C@]1(C)CCN2Cc1ccccc1F
pKi [21]: 9.01

C[C@@H]1[C@@H]2Cc3ccc(O)cc3[C@]1(C)CCN2CCN1CCCC1
pKi (Mu-type opioid receptor [18]): 5.42
pKi [12]: 8.13
pKi [19]: 6.59

— ChEMBL document CHEMBL5260834, “Benzomorphan skeleton, a versatile scaffold for different targets: A comprehensive review” (Eur J Med Chem, 2018)
